Data as given in patent US12077503B2, “Substituted cyclic amides and their use as herbicides” (FMC CORPORATION, priority 2015, dated 2024).
Read-outs that look alike come from different tables or passages of the source.

Experiments:
Assay type in all cases: in vivo
[1] = system: ryegrass, Italian (Italian ryegrass, Lolium multiflorum); assay: Test A preemergence; details: Lolium multiflorum, pre-emergence, 240 h; for pest or weed control at 500 g/ha: 500 g ai/ha, preemergence, visual injury rating about 10 d after treatment, 0 to 100 scale (0 no effect, 100 complete control), read-out: Ryegrass, Italian plant response rating
Procedure, shortened: (§1)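 Seeded soil received test chemicals as a preemergence directed spray, and seedlings at one to two leaves, 2–10 cm tall, received them postemergence, in a non-phytotoxic, surfactant-containing solvent mixture. Pots were held in a greenhouse for approximately 10 d, then rated for injury from 0, no effect, to 100, complete control.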

[2] = system: barnyardgrass (Echinochloa crus-galli); assay: Test A preemergence; details: Echinochloa crus-galli, pre-emergence, 240 h; for pest or weed control at 125 g/ha: 125 g ai/ha; for pest or weed control at 500 g/ha: 500 g ai/ha, visual injury rating about 10 d after treatment, 0 to 100 scale (0 no effect, 100 complete control)
Procedure, shortened: as §1

[3] = system: ragweed (common ragweed, Ambrosia elatior); assay: Test A preemergence; details: Ambrosia artemisiifolia, pre-emergence, 240 h
Procedure, shortened: as §1

[4] = system: giant foxtail (Setaria faberii); assay: Test A preemergence; details: Setaria faberi, pre-emergence, 240 h; for pest or weed control at 125 g/ha: 125 g ai/ha; for pest or weed control at 500 g/ha: 500 g ai/ha, visual injury rating about 10 d after treatment, 0 to 100 scale (0 no effect, 100 complete control)
Procedure, shortened: as §1

[5] = system: pigweed (Amaranthus retroflexus); assay: Test A preemergence; details: Amaranthus retroflexus, pre-emergence, 240 h; for pest or weed control at 125 g/ha: 125 g ai/ha; for pest or weed control at 500 g/ha: 500 g ai/ha, visual injury rating about 10 d after treatment, 0 to 100 scale (0 no effect, 100 complete control)
Kochia (Kochia scoparia) [6] = assay: Test A preemergence; details: Bassia scoparia, pre-emergence, 240 h; for pest or weed control at 125 g/ha: 125 g ai/ha; for pest or weed control at 500 g/ha: 500 g ai/ha, visual injury rating about 10 d after treatment, 0 to 100 scale (0 no effect, 100 complete control)
Procedure, shortened: as §1

[7] = system: ryegrass, Italian (Italian ryegrass, Lolium multiflorum); assay: Test A postemergence; details: Lolium multiflorum, post-emergence, 240 h; for pest or weed control at 125 g/ha: 125 g ai/ha
Procedure, shortened: as §1

[8] = system: barnyardgrass (Echinochloa crus-galli); assay: Test A postemergence; details: Echinochloa crus-galli, post-emergence, 240 h, read-out: Plant response rating, Barnyardgrass; for pest or weed control at 125 g/ha: 125 g ai/ha, Postemergence, visual injury after approximately 10 d, 0 to 100 scale where 0 is no effect and 100 is complete control
Procedure, shortened: as §1

[9] = system: ragweed (common ragweed, Ambrosia elatior); assay: Test A postemergence; details: Ambrosia artemisiifolia, post-emergence, 240 h; for pest or weed control at 125 g/ha: 125 g ai/ha
Procedure, shortened: as §1

[10] = system: Galium (catchweed bedstraw, Galium aparine); assay: Test A postemergence; details: Galium, post-emergence, 240 h; for pest or weed control at 125 g/ha: 125 g ai/ha
Procedure, shortened: as §1

corn (Zea mays) = assay: Test A postemergence; details: Zea mays, post-emergence, 240 h; for Corn plant response rating (crop injury, 0 = no effect, 100 = complete kill) at 125 g/ha: 125 g ai/ha, Postemergence, visual injury after approximately 10 d, 0 to 100 scale where 0 is no effect and 100 is complete control
Procedure, shortened: as §1

[11] = system: blackgrass (Alopecurus myosuroides); assay: Test A postemergence; details: Alopecurus myosuroides, post-emergence, 240 h, read-out: Plant response rating, Blackgrass; for pest or weed control at 125 g/ha: 125 g ai/ha, Postemergence, visual injury after approximately 10 d, 0 to 100 scale where 0 is no effect and 100 is complete control
Procedure, shortened: as §1

[12] = system: giant foxtail (Setaria faberii); assay: Test A postemergence; details: Setaria faberi, post-emergence, 240 h; for pest or weed control at 125 g/ha: 125 g ai/ha
Procedure, shortened: as §1

[13] = system: pigweed (Amaranthus retroflexus); assay: Test A postemergence; details: Amaranthus retroflexus, post-emergence, 240 h; for pest or weed control at 125 g/ha: 125 g ai/ha
Procedure, shortened: as §1

[14] = system: wheat (Triticum aestivum); assay: Test A postemergence; details: Triticum aestivum, post-emergence, 240 h; for plant injury at 125 g/ha: 125 g ai/ha
Procedure, shortened: as §1

Kochia (Kochia scoparia) [15] = assay: Test A postemergence; details: Bassia scoparia, post-emergence, 240 h; for pest or weed control at 125 g/ha: 125 g ai/ha
Procedure, shortened: as §1

[16] = preemergence, read-out: Barnyardgrass plant response rating
[17] = preemergence, read-out: Foxtail, Giant plant response rating
[18] = preemergence, read-out: Pigweed plant response rating
[19] = preemergence, read-out: Kochia plant response rating
[20] = 500 g ai/ha, postemergence, visual injury, 0 to 100 scale (0 no effect, 100 complete control), approx. 10 d

## CN1C[C@H](c2ccc(C(F)(F)F)cc2)[C@@H](C(=O)Nc2cccc(F)c2Br)C1=O [Compound 937]
[1]
  pest or weed control at 500 g/ha: 50%
[2]; preemergence, 0 to 100 scale where 0 is no effect and 100 is complete control, read-out: Barnyardgrass plant response rating
  pest or weed control at 125 g/ha: 90%
[2]; [16]
  pest or weed control at 500 g/ha: 90%
[3]; 500 g ai/ha, preemergence, visual injury rating about 10 d after treatment, 0 to 100 scale (0 no effect, 100 complete control), read-out: Ragweed plant response rating
  pest or weed control at 500 g/ha: 80%
[4]; preemergence, 0 to 100 scale where 0 is no effect and 100 is complete control, read-out: Foxtail, Giant plant response rating
  pest or weed control at 125 g/ha: 90%
[4]; [17]
  pest or weed control at 500 g/ha: 90%
[5]; preemergence, 0 to 100 scale where 0 is no effect and 100 is complete control, read-out: Pigweed plant response rating
  pest or weed control at 125 g/ha: 50%
[5]; [18]
  pest or weed control at 500 g/ha: 80%
Kochia (Kochia scoparia) [6]; preemergence, 0 to 100 scale where 0 is no effect and 100 is complete control, read-out: Kochia plant response rating
  pest or weed control at 125 g/ha: 80%
Kochia (Kochia scoparia) [6]; [19]
  pest or weed control at 500 g/ha: 80%
[7]; Postemergence, visual injury after approximately 10 d, 0 to 100 scale where 0 is no effect and 100 is complete control, read-out: Plant response rating, Ryegrass, Italian
  pest or weed control at 125 g/ha: 20%
[8]
  pest or weed control at 125 g/ha: 70%
[9]; Postemergence, visual injury after approximately 10 d, 0 to 100 scale where 0 is no effect and 100 is complete control, read-out: Plant response rating, Ragweed
  pest or weed control at 125 g/ha: 20%
[10]; Postemergence, visual injury after approximately 10 d, 0 to 100 scale where 0 is no effect and 100 is complete control, read-out: Plant response rating, Galium
  pest or weed control at 125 g/ha: 70%
Corn (Zea mays)
  Corn plant response rating (crop injury, 0 = no effect, 100 = complete kill) at 125 g/ha: 20%
[11]
  pest or weed control at 125 g/ha: 30%
[12]; Postemergence, visual injury after approximately 10 d, 0 to 100 scale where 0 is no effect and 100 is complete control, read-out: Plant response rating, Foxtail, Giant
  pest or weed control at 125 g/ha: 90%
[13]; Postemergence, visual injury after approximately 10 d, 0 to 100 scale where 0 is no effect and 100 is complete control, read-out: Plant response rating, Pigweed
  pest or weed control at 125 g/ha: 60%
[14]; Postemergence, visual injury after approximately 10 d, 0 to 100 scale where 0 is no effect and 100 is complete control, read-out: Plant response rating, Wheat
  plant injury at 125 g/ha: 20%
Kochia (Kochia scoparia) [15]; Postemergence, visual injury after approximately 10 d, 0 to 100 scale where 0 is no effect and 100 is complete control, read-out: Plant response rating, Kochia
  pest or weed control at 125 g/ha: 30%

## CC(C)COc1cccc([C@H]2CN(C)C(=O)[C@@H]2C(=O)Nc2ccccc2F)c1 [Compound 1028]
[1]; 125 g ai/ha, Preemergence, visual injury rating after approximately 10 d, read-out: Ryegrass, Italian plant response rating (0 to 100 scale, 0 is no effect, 100 is complete control)
  pest or weed control at 125 g/ha: 30%
[1]
  pest or weed control at 500 g/ha: 30%
[2]; Preemergence, visual injury rating after approximately 10 d, read-out: Barnyardgrass plant response rating (0 to 100 scale, 0 is no effect, 100 is complete control)
  pest or weed control at 125 g/ha: 90%
[2]; [16]
  pest or weed control at 500 g/ha: 90%
[3]; 125 g ai/ha, Preemergence, visual injury rating after approximately 10 d, read-out: Ragweed plant response rating (0 to 100 scale, 0 is no effect, 100 is complete control)
  pest or weed control at 125 g/ha: 0%
[4]; Preemergence, visual injury rating after approximately 10 d, read-out: Foxtail, Giant plant response rating (0 to 100 scale, 0 is no effect, 100 is complete control)
  pest or weed control at 125 g/ha: 90%
[4]; [17]
  pest or weed control at 500 g/ha: 90%
[5]; Preemergence, visual injury rating after approximately 10 d, read-out: Pigweed plant response rating (0 to 100 scale, 0 is no effect, 100 is complete control)
  pest or weed control at 125 g/ha: 0%
[5]; [18]
  pest or weed control at 500 g/ha: 0%
Kochia (Kochia scoparia) [6]; Preemergence, visual injury rating after approximately 10 d, read-out: Kochia plant response rating (0 to 100 scale, 0 is no effect, 100 is complete control)
  pest or weed control at 125 g/ha: 0%
Kochia (Kochia scoparia) [6]; [19]
  pest or weed control at 500 g/ha: 60%
[7]; postemergence, visual injury on 0 to 100 scale (0 no effect, 100 complete control), approx. 10 d, read-out: Ryegrass, Italian plant response rating
  pest or weed control at 125 g/ha: 0%
[7]; 500 g ai/ha, postemergence, visual injury, 0 to 100 scale (0 no effect, 100 complete control), approx. 10 d, read-out: Plant response rating, Ryegrass, Italian
  pest or weed control at 500 g/ha: 40%
[8]
  pest or weed control at 125 g/ha: 80%
[8]; [20]
  pest or weed control at 500 g/ha: 90%
[9]; postemergence, visual injury on 0 to 100 scale (0 no effect, 100 complete control), approx. 10 d, read-out: Ragweed plant response rating
  pest or weed control at 125 g/ha: 0%
[9]; 500 g ai/ha, postemergence, visual injury, 0 to 100 scale (0 no effect, 100 complete control), approx. 10 d, read-out: Plant response rating, Ragweed
  pest or weed control at 500 g/ha: 0%
[10]; postemergence, visual injury on 0 to 100 scale (0 no effect, 100 complete control), approx. 10 d, read-out: Galium plant response rating
  pest or weed control at 125 g/ha: 40%
[10]; 500 g ai/ha, postemergence, visual injury, 0 to 100 scale (0 no effect, 100 complete control), approx. 10 d, read-out: Plant response rating, Galium
  pest or weed control at 500 g/ha: 50%
Corn (Zea mays)
  Corn plant response rating (crop injury, 0 = no effect, 100 = complete kill) at 125 g/ha: 0%
Corn (Zea mays); [20]
  Corn plant response rating (crop injury, 0 = no effect, 100 = complete kill) at 500 g/ha: 30%
[11]
  pest or weed control at 125 g/ha: 30%
[11]; [20]
  pest or weed control at 500 g/ha: 40%
[12]; postemergence, visual injury on 0 to 100 scale (0 no effect, 100 complete control), approx. 10 d, read-out: Foxtail, Giant plant response rating
  pest or weed control at 125 g/ha: 80%
[12]; 500 g ai/ha, postemergence, visual injury, 0 to 100 scale (0 no effect, 100 complete control), approx. 10 d, read-out: Plant response rating, Foxtail, Giant
  pest or weed control at 500 g/ha: 80%
[13]; postemergence, visual injury on 0 to 100 scale (0 no effect, 100 complete control), approx. 10 d, read-out: Pigweed plant response rating
  pest or weed control at 125 g/ha: 0%
[13]; 500 g ai/ha, postemergence, visual injury, 0 to 100 scale (0 no effect, 100 complete control), approx. 10 d, read-out: Plant response rating, Pigweed
  pest or weed control at 500 g/ha: 0%
[14]; postemergence, visual injury on 0 to 100 scale (0 no effect, 100 complete control), approx. 10 d, read-out: Wheat plant response rating
  plant injury at 125 g/ha: 0%
[14]; 500 g ai/ha, postemergence, visual injury, 0 to 100 scale (0 no effect, 100 complete control), approx. 10 d, read-out: Plant response rating, Wheat
  plant injury at 500 g/ha: 40%
Kochia (Kochia scoparia) [15]; postemergence, visual injury on 0 to 100 scale (0 no effect, 100 complete control), approx. 10 d, read-out: Kochia plant response rating
  pest or weed control at 125 g/ha: 0%
Kochia (Kochia scoparia) [15]; 500 g ai/ha, postemergence, visual injury, 0 to 100 scale (0 no effect, 100 complete control), approx. 10 d, read-out: Plant response rating, Kochia
  pest or weed control at 500 g/ha: 0%
